Results as given in PubChem BioAssay AID1918994 (Molecular Pharmacology Branch, DTP, NCI, 2023).

Tested on: 292921-168-R-J2-PDC complex spheroid growth
Assay: Anticancer human tumor 292921-168-R-J2-PDC patient-derived pancreatic carcinoma cell line growth inhibition [AhR]
Details: for viability, T/C: stronger effect = lower value
How it was run: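 Agents were dosed in half-log steps down from roughly clinical Cmax, or from 10 microM where Cmax was unknown, alone and with AhR antagonists. Read-out: percent test/control growth of tumor spheroids containing HUVEC and MSC stromal cells.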

[1] = curve of first compound, second compound 0.1 µM
[2] = curve of first compound, second compound 0.316 µM
[3] = curve of first compound, second compound 1 µM
[4] = curve of first compound, second compound 3.16 µM
[5] = curve of first compound, second compound 10 µM
[6] = second compound 0.1 µM, first compound 0.0316 µM
[7] = second compound 0.1 µM, first compound 0.1 µM
[8] = second compound 0.1 µM, first compound 0.316 µM
[9] = second compound 0.1 µM, first compound 1 µM
[10] = second compound 0.316 µM, first compound 0.0316 µM
[11] = second compound 0.316 µM, first compound 0.1 µM
[12] = second compound 0.316 µM, first compound 0.316 µM
[13] = second compound 0.316 µM, first compound 1 µM
[14] = second compound 1 µM, first compound 0.0316 µM
[15] = second compound 1 µM, first compound 0.1 µM
[16] = second compound 1 µM, first compound 0.316 µM
[17] = second compound 1 µM, first compound 1 µM
[18] = second compound 3.16 µM, first compound 0.0316 µM
[19] = second compound 3.16 µM, first compound 0.1 µM
[20] = second compound 3.16 µM, first compound 0.316 µM
[21] = second compound 3.16 µM, first compound 1 µM
[22] = second compound 10 µM, first compound 0.0316 µM
[23] = second compound 10 µM, first compound 0.1 µM
[24] = second compound 10 µM, first compound 0.316 µM
[25] = second compound 10 µM, first compound 1 µM
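Further: spheroids exposed to compounds for seven days after three days of growth.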

| Structure (SMILES) | IC50 [1] | IC50 [2] | IC50 [3] | IC50 [4] | IC50 [5] | viability, T/C [6] | viability, T/C [7] | viability, T/C [8] | viability, T/C [9] | viability, T/C [10] | viability, T/C [11] | viability, T/C [12] | viability, T/C [13] | viability, T/C [14] | viability, T/C [15] | viability, T/C [16] | viability, T/C [17] | viability, T/C [18] | viability, T/C [19] | viability, T/C [20] | other results |
| --- | --- | --- | --- | --- | --- | --- | --- | --- | --- | --- | --- | --- | --- | --- | --- | --- | --- | --- | --- | --- | --- |
| O=C(c1cc(Cc2n[nH]c(=O)c3ccccc23)ccc1F)N1CCN(C(=O)C2CC2)CC1 + Cc1ccccc1N=Nc1ccc(NC(=O)c2ccnn2C)c(C)c1 | > 10 µM | > 10 µM | > 10 µM | > 10 µM | 4.55 µM | 80% | 84.9% | 92.9% | 95.8% | 79.4% | 90% | 86.8% | 85.8% | 77.8% | 67.8% | 79.2% | 73.5% | 69.2% | 64.4% | 72.5% | viability, T/C (second compound 0.1 µM, first compound 3.16 µM): 89.6%; viability, T/C (second compound 0.1 µM, first compound 10 µM): 75.5%; viability, T/C (second compound 0.316 µM, first compound 3.16 µM): 84.5%; viability, T/C (second compound 0.316 µM, first compound 10 µM): 65.7%; viability, T/C (second compound 1 µM, first compound 3.16 µM): 82.8%; viability, T/C (second compound 1 µM, first compound 10 µM): 67.4%; viability, T/C [21]: 67.4%; viability, T/C (second compound 3.16 µM, first compound 3.16 µM): 63.6%; viability, T/C (second compound 3.16 µM, first compound 10 µM): 58.9%; viability, T/C [22]: 50.6%; viability, T/C [23]: 59.5%; viability, T/C [24]: 54.6%; viability, T/C [25]: 62.6%; viability, T/C (second compound 10 µM, first compound 3.16 µM): 49.7%; viability, T/C (second compound 10 µM, first compound 10 µM): 43.8% |
| Nc1ncn(C2CC(O)C(CO)O2)c(=O)n1 (stereo not given) + Cc1cncc(-c2nc(NCCc3c[nH]c4ccccc34)c3ncn(C(C)C)c3n2)c1 | > 1 µM | > 1 µM | > 1 µM | > 1 µM | 0.00968 µM | 84% | 89.6% | 80.6% | 65.6% | 88.1% | 79.3% | 78.6% | 70.7% | 80.4% | 77.8% | 82% | 73.7% | 76.5% | 67.6% | 64.1% | viability, T/C (second compound 0.1 µM, first compound 0.00316 µM): 99.6%; viability, T/C (second compound 0.1 µM, first compound 0.01 µM): 100%; viability, T/C (second compound 0.316 µM, first compound 0.00316 µM): 84.1%; viability, T/C (second compound 0.316 µM, first compound 0.01 µM): 86.2%; viability, T/C (second compound 1 µM, first compound 0.00316 µM): 80.5%; viability, T/C (second compound 1 µM, first compound 0.01 µM): 86.9%; viability, T/C (second compound 3.16 µM, first compound 0.00316 µM): 70.7%; viability, T/C (second compound 3.16 µM, first compound 0.01 µM): 71.9%; viability, T/C [21]: 62.3%; viability, T/C (second compound 10 µM, first compound 0.00316 µM): 51.9%; viability, T/C (second compound 10 µM, first compound 0.01 µM): 49%; viability, T/C [22]: 50%; viability, T/C [23]: 47.1%; viability, T/C [24]: 43.2%; viability, T/C [25]: 45.5% |
| Cc1ccccc1N=Nc1ccc(NC(=O)c2ccnn2C)c(C)c1 |  |  |  |  |  |  |  |  |  |  |  |  |  |  |  |  |  |  |  |  | viability, T/C (compound 0.1 µM): 91.3% [middle of 19 runs]; viability, T/C (compound 0.316 µM): 85.6% [middle of 20 runs]; viability, T/C (compound 1 µM): 82.1% [middle of 20 runs]; viability, T/C (compound 10 µM): 62.7% [middle of 21 runs]; IC50 (compound alone, run of 06/14/2022): > 10 µM |
